The source of these data is patent US20030207843A1, “Treatment of drug-resistant human immunodeficiency virus infection” (priority 1999, published 2003).

Read-outs that look alike come from different tables or passages of the source.

The subject of assay [1] is HIV-1LAI 4XAZT (D67N, K70R, T215Y, K219Q). The assay can be described thus: p24 reduction assay in MT-2 cells, 4XAZT. In kind it is cell-based. The method, then: (§1) Cells. MT-2 cells (AIDS Research and Reference Reagent Program, National Institute of Allergy and Infectious Diseases, National Institutes of Health) were maintained in RPMI 1640 supplemented with 10% fetal bovine serum (FBS; JRH Biosciences, Lenexa, Kans.), 10 mM HEPES buffer, 50 IU/ml penicillin and 50 μg/ml streptomycin.
(§2) Antiviral Susceptibility Assays. The antiviral activity of each compound was determined by inoculating MT-2 cells with HIV-1LAI at a multiplicity of infection (MOI) of 0.01 TCID50/cell, followed by incubation in the presence of three-fold serial drug dilutions (3 wells per dilution) (see Mellors, et. al., Antimicrob. Agents Chemother. 39:1087-1092). Five or seven days after infection, culture supernatants were harvested, lysed with 0.5% triton-X 100 and assayed for p24 antigen concentration using a commercial ELISA assay (DuPont, NEN Products, Wilmington, Del.). The antiviral activity of the compounds is expressed as the IC50, which is the concentration required to inhibit 50% of p24 antigen production. The fold-resistance of a test virus is calculated by dividing the IC50 of the test virus by the IC50 of the HIV-1LAI control virus.
(§3) Generation of Mutant Recombinant HIV-1. HIV-1 containing the desired mutations were generated by oligonucleotide directed mutagenesis (Altered Sites II, Promega) as previously described (Mellors, et. al., Molecular Pharm. 41:446-451). After mutagenesis, mutant RT was subcloned into the pxxHIV-1LAI cloning vector using the silent XmaI and XbaI restriction sites located at the 5′ and 3′ ends of RT. Clones were DNA sequenced to verify the presence of the desired mutation(s) and electroporated into MT-2 cells as described above to generate infectious mutant recombinant HIV-1.
(§4) Mutant RT was generated via oligonucleotide-directed mutagenesis and ligated into the pXXHIV-1LAI cloning vector. Cloning was facilitated by the presence of two silent restriction sites at the 5′ and 3′ ends (Xma1 and Xba1, respectively) of pXXHIV-1LAI RT. Infectious mutant recombinant HIV-1 was generated by electroporating MT-2 cells with mutated pXXHIV-1LAI clones. The presence of the desired mutations was verified by DNA sequencing.
(§5) The multi-drug resistant HIV-1 strains, 11163p1 and 11588p1, are human clinical isolates having the RT mutations indicated. HIV-1 strains treated with the lipid analogs of the present invention include wild type, e.g., xxLAI, and the like, single mutation, e.g., xxLAI MI 84V (resistant to 3TC), xxLAI L74V (resistant to ddI and ddC), xxLAI K65R (resistant to ddI, ddC, DAPD, DXG, tenofovir, and adefovir), xxLAI T215Y (resistant to AZT), and the like, double mutations, e.g., xxLAI M41 L/T215Y (resistant to AZT), xxLAI MI 84V/T215Y (resistant to 3TC and AZT), and the like, and multiple mutations, e.g., xxLAI 4XAZT ((D67N, K70R, T215Y, K219Q) resistant to AZT)), xxLAI 4XAZT/M184V ((D67N, K70R, M 184V, T215Y, K219Q) resistant to AZT and 3TC), xxLAI M5456-12 (AZT+NNRTI resistant: D67N, K70R, K103N, T215Y), xxLAI G2-3g (AZT/3TC co-resistant: M41L, D67N, M184V, H208Y, L210W, R211K, L214F, T215Y, 1293V, E297A), 11163 (multinucleoside resistant virsus: M41L, A62V, V751, F77L, K103N, F116Y, Q151M, Y181C, M184V), 11588 (multinucleoside resistant virsus: A62V, K65R, K70R, V751, F77L, F116Y, Q151M, M184V, K219Q), and the like.

Assay [2] relates to HIV-1 G2-3g (molecularly cloned isolate co-resistant to AZT and 3TC). Put plainly: p24 reduction assay in MT-2 cells, G2-3g. To be noted: for EC50: G2-3g; for Fold-resistance: G2-3g relative to wild type virus. It is filed as cell-based. The method, then: as §1, §2, §5
For assay [3], the system named is HIV-1LAI 4XAZT/Q161L/H208Y. Put plainly: p24 reduction assay in MT-2 cells, 4XAZT/Q161L/H208Y. It is filed as cell-based. To be noted: Table 7; for EC50: 4XAZTQ161L/H208Y; for Fold-resistance: 4XAZTQ161L/H208Y relative to wild type virus. The method, then: as §1, §2, §3, §4
(§6) Invention compounds were also evaluated against a panel of HIV-1LAI derived recombinants resistant to PFA and the PFA invention compounds, as shown in Table 7.

Assay [4] deals with K (multinucleoside resistant recombinant virus V75I, F77L, F116Y, Q151M). The assay can be described thus: p24 reduction assay in MT-2 cells, virus K. It is filed as cell-based, HIV-1. The settings on record: Table 4; for Fold-resistance: virus K relative to wild type virus; for EC50: virus K, mean ± SD. As to the method:
as §1, §2
(§7) The MNR panel consisted of a virus containing the mutations V75I, F77L, F116Y and […], a virus containing the T69S[SA insert], and a clinical isolate carrying the classic MNR genotype (62V/751/77L/116Y/151M). Each of the PFA invention compounds retained potency against these viruses with fold resistance values of <2.

The next assay has as its system HIV-1LAI L74V. The assay can be described thus: p24 reduction assay in MT-2 cells, L74V. In kind it is cell-based. To be noted: for EC50: L74V; for Fold-resistance: L74V relative to wild type virus. The method, then: as §1, §2, §3, §4, §5
A further assay has as its system HIV-1LAI W88S. The assay can be described thus: p24 reduction assay in MT-2 cells, W88S. In kind it is cell-based. To be noted: Table 7; for EC50: W88S; for Fold-resistance: W88S relative to wild type virus. The method, then: as §1, §2, §3, §4, §6
Another assay relates to HIV-1LAI E89K. The assay can be described thus: p24 reduction assay in MT-2 cells, E89K. In kind it is cell-based. The settings on record: Table 7; for EC50: E89K; for Fold-resistance: E89K relative to wild type virus. As to the method: as §1, §2, §3, §4, §6
Another assay deals with HIV-1LAI M184V. The assay can be described thus: p24 reduction assay in MT-2 cells, M184V. It is filed as cell-based. To be noted: for EC50: M184V; for Fold-resistance: M184V relative to wild type virus. The method, then:
as §1, §2, §3, §4, §5

A further assay relates to HIV-1LAI Q161L. Put plainly: p24 reduction assay in MT-2 cells, Q161L. In kind it is cell-based. The settings on record: Table 7; for EC50: Q161L; for Fold-resistance: Q161L relative to wild type virus. As to the method:
as §1, §2, §3, §4, §6

Assay [5] concerns 11163p3 (multinucleoside resistant clinical isolate). Put plainly: p24 reduction assay in MT-2 cells, 11163p3. In kind it is cell-based, HIV-1. To be noted: Table 4; for EC50: 11163p3, mean ± SD; for Fold-resistance: 11163p3 relative to wild type virus. The method, then:
as §1, §2, §7

[6] abbreviates: Table 1, 4xAZT, MOI 0.01, read-out: EC50.
Setting [7] is: Table 5, 4XAZT relative to wild type virus.
Where [8] appears, read: Table 5, 4XAZT, mean ± SD, read-out: EC50.
The mark [9] stands for this setting: Table 7, 4XAZT relative to wild type virus.

One may read the EC50 as the concentration at which the effect is half-maximal.

Consider `Cc1cn([C@H]2C[C@H](N=[N+]=[N-])[C@@H](CO)O2)c(=O)[nH]c1=O` [AZT, 3′-Azido-3′-deoxythymidine], for which the EC50 in assay [1] (Human immunodeficiency virus 1, MT2, Table 8, 4XAZT, read-out: AZT EC50) amounted to 290 ± 114 nM. Besides, in assay [1] (Table 8, 4XAZT relative to wild type virus), the Fold resistance was 7.3.

On to `CCCCCCCCCCCCCCCCCCOC[C@@H](O)COP(=O)(O)C(=O)O` [B-PFA, 1-O-octadecyl-sn-glycero-3-PFA], for which the 50% effective concentration (EC50) was 1470 nM in [2] (Table 1, MOI 0.01); 1670 ± 950 nM in assay [2] (Table 5, mean ± SD); 6200 nM in [3]; 4200 nM in [4]; 4250 nM in the assay on HIV-1LAI L74V (Table 1, MOI 0.01); 4450 ± 2260 nM in the assay on HIV-1LAI L74V (Table 3, mean ± SD). Besides, the EC50 with HIV-1LAI W88S was 20700 nM; in the assay with HIV-1LAI E89K, over 30000 nM; in assay [1] (setting [6]) it was 1250 nM; in [1] (setting [8]) it was 1470 ± 630 nM; in [1] (Table 7, 4XAZT, read-out: EC50) it was 1470 nM; in the assay with HIV-1LAI M184V (Table 1, MOI 0.01) it was 2290 nM. Also, the EC50 was 1930 ± 540 nM in the assay with HIV-1LAI M184V (Table 3, mean ± SD); over 30000 nM in the assay with HIV-1LAI Q161L; 1100 ± 530 nM in [5]. Besides, the Fold-resistance result is recorded as “(0.9)” in assay [2] (Table 5); 0.85 (2.4) in assay [3]; “(1.6)” in [4]; “(2.5)” with HIV-1LAI L74V (Table 3); 1.20 (11.9) with HIV-1LAI W88S; “(>17.2)” in the assay with HIV-1LAI E89K. For the same molecule, the Fold-resistance entry in assay [1] (setting [7]) is reported as “(0.8)”; in assay [1] (setting [9]) it was 0.63 (0.8); in the assay on HIV-1LAI M184V (Table 3), “(0.7)”; in the assay on HIV-1LAI Q161L it was “(>17.2)”; in [5], “(0.6)”.

For `CCCCCCCCCCCCCCCCCCOC[C@H](COP(=O)(O)C(=O)O)OCC` [EB-PFA, 1-O-octadecyl-2-O-ethyl-sn-glycero-3-PFA], the EC50 in [2] (Table 1, MOI 0.01) came out at 320 nM; in [2] (Table 5, mean ± SD) it was 300 ± 40 nM; in assay [3], 2020 nM; in assay [4] it was 900 ± 700 nM; in the assay on HIV-1LAI L74V (Table 1, MOI 0.01), 1340 nM; in the assay with HIV-1LAI L74V (Table 3, mean ± SD) it was 1210 ± 850 nM. The concentration giving a half-maximal response (EC50) was 2390 nM in the assay on HIV-1LAI W88S; 5210 nM in the assay with HIV-1LAI E89K; 330 nM in assay [1] (setting [6]); 340 ± 240 nM in [1] (setting [8]); 340 nM in assay [1] (Table 7, 4XAZT, read-out: EC50); 580 nM in the assay with HIV-1LAI M184V (Table 1, MOI 0.01). In addition, the EC50 is 1360 ± 930 nM in the assay with HIV-1LAI M184V (Table 3, mean ± SD); 6730 nM in the assay with HIV-1LAI Q161L; 500 ± 60 nM in assay [5]. Besides, the Fold-resistance result in [2] (Table 5) was “(0.5)”; in assay [3], 0.54 (2.6); with HIV-1LAI L74V (Table 3) it was “(1.9)”; with HIV-1LAI W88S it was 0.15 (2.7); in assay [1] (setting [7]), “(0.5)”; in assay [1] (setting [9]) it was 0.24 (0.5). The results for the Fold-resistance entry (in the assay with HIV-1LAI M184V (Table 3); in the assay with HIV-1LAI Q161L; in assay [5]) were “(0.7)”, 0.04 (7.5) and “(0.8)”, respectively.

Turning to `CCCCCCCCCCCCCCCCCCOC[C@H](COP(=O)(O)C(=O)O)OC` [MB-PFA, 1-O-octadecyl-2-O-methyl-sn-glycero-3-PFA], the EC50 in assay [2] (Table 1, MOI 0.01) is 260 nM; in assay [2] (Table 5, mean ± SD), 400 ± 260 nM; in assay [4] it was 2000 ± 600 nM; with HIV-1LAI L74V (Table 1, MOI 0.01), 520 nM; in the assay with HIV-1LAI L74V (Table 3, mean ± SD), 880 ± 630 nM; with HIV-1LAI W88S it was 2490 nM. Also, the EC50 in the assay with HIV-1LAI E89K is 7210 nM; in assay [1] (setting [6]), 460 nM; in [1] (setting [8]), 580 ± 220 nM; in assay [1] (Table 7, 4XAZT, read-out: EC50) it was 580 nM; in the assay with HIV-1LAI M184V (Table 1, MOI 0.01) it was 480 nM; in the assay with HIV-1LAI M184V (Table 3, mean ± SD), 1510 ± 450 nM. For the same molecule, the results for the EC50 (with HIV-1LAI Q161L; in assay [5]) were 8780 nM and 400 ± 280 nM, respectively. Further, the Fold-resistance result in assay [2] (Table 5) is “(0.8)”; in [3] it was 0.14 (2.7); in assay [4], “(0.87)”; in the assay on HIV-1LAI L74V (Table 3) it was “(1.8)”; in the assay on HIV-1LAI W88S it was 0.12 (3.2); in the assay on HIV-1LAI E89K, 0.12 (9.4). For the same molecule, the Fold-resistance entry in [1] (setting [7]) is given as “(1.2)”; in assay [1] (setting [9]) it was 0.22 (1.2); with HIV-1LAI M184V (Table 3) it was “(1.7)”; with HIV-1LAI Q161L, 1.58 (11.4); in assay [5] it was “(0.9)”.
